Results published in patent US9925185B1, “Treatment and prevention methods for mammalian neurosensory hair cells loss” (Creighton University, priority 2014, dated 2018).

Tests used:
[1] = system: cochlear hair cells (organ of Corti); test: In vivo chemoprotective and proliferative effects on cochlear hair cells of cisplatin-treated mice; details: C57BL/6 mice
Procedure: The inner ear neurosensory epithelia, the organ of Corti (OC), were analyzed. FIGS. 4A through 4D illustrate the outer hair cells (OHCs) and inner hair cells (IHCs) in the middle turn of the cochlea of adult C57BL/6 mice submitted to different treatments. The control group was the untreated cochlea, illustrated in FIG. 4A.

[2] = system: cisplatin-treated N2a cells; details: 1 μM quinoxaline pre-treatment, then 100 μM cisplatin
Procedure: (§1) Cytotoxicity effects for each drug were measured by the colorimetric MTT assay. The MTT assay includes a yellow tetrazole that is reduced to purple formazan in living cells. In this implementation, solubilization solution (e.g., dimethyl sulfoxide, an acidified ethanol solution, or a solution of the detergent sodium dodecyl sulfate in diluted hydrochloric acid) was added to dissolve the insoluble purple formazan product into a colored solution. The absorbance of this colored solution was quantified by measuring at a certain wavelength (e.g, between 500 and 600 nm) by a spectrophotometer where the degree of light absorption depends on the solvent. The MTT assay can provide a useful measure of cell viability and proliferation. To quantify cytotoxicity, 10 μl of 10 mg/ml of MTT reagent was added to a well containing cells, and the cells were incubated at 37° C. for 4 hours. The supernatant was aspirated and the purple-colored formazan product was dissolved in 100 μl of DMSO. Absorbance was measured at 590 nm. The average of triplicate wells was taken for each concentration of the drug, and cell viability was calculated by substituting the corresponding mean absorbance values using the following equation: […]
(§2) Cells were plated at a density of 20,000 cells per well overnight, followed by a pretreatment with varying concentrations of quinoxaline for one hour. […]

[3] = system: cisplatin-treated HEI-OC1 cells; test: Protective potential of quinoxaline pre-treatment on cisplatin-treated HEI-OC1 cells; assay type: cell-based
Procedure: HEI-OC1 cells were plated at a density of 20,000 cells per well overnight, followed by a pre-treatment with varying concentrations of quinoxaline (i.e., 200 nM, 1 μM, 10 μM, and 50 μM) for one hour.

HEI-OC1 cells [4] = test: CYQUANT cell proliferation assay (DNA content) in HEI-OC1 cells; assay type: cell-based; details: 200 nM, 500 nM, 1 μM, 5 μM for 24 hours, t-test p<0.001, most noticeable at 200 and 500 nM
Procedure: In an implementation, HEI-OC1 cells were treated with different concentrations (e.g., 200 nM, 500 nM, 1 μM, and 5 μM) of quinoxaline for 24-hours. Untreated cells were used as control groups. To quantify potential changes in cell proliferation following the treatment, DNA isolated from treated and untreated cells was submitted to CYQUANT analysis (Invitrogen, Grand Island, N.Y.), following the manufacturer's instructions for cell proliferation assay. The CYQUANT assay is based on the principle that cell number is proportional to the measurement of cellular DNA content. However, the use of the CYQUANT assay is offered by way of example only and is not meant to be restrictive of the present disclosure. In other embodiments, other types of cell proliferation assays can be used to quantify potential changes in cell proliferation. FIG. 3B illustrates the DNA content of untreated cells and quinoxaline-treated cells. […] Quinoxaline's effect in cell proliferation was most noticeable when cells were treated with lower concentrations (i.e., 200 nm and 500 nM) of the drug.

N2a cells = system: N2a cells
Procedure: (§3) Cytotoxicity effects for each drug were measured by the colorimetric MTT assay. The MTT assay includes a yellow tetrazole that is reduced to purple formazan in living cells. In this implementation, solubilization solution (e.g., dimethyl sulfoxide, an acidified ethanol solution, or a solution of the detergent sodium dodecyl sulfate in diluted hydrochloric acid) was added to dissolve the insoluble purple formazan product into a colored solution. The absorbance of this colored solution was quantified by measuring at a certain wavelength (e.g, between 500 and 600 nm) by a spectrophotometer where the degree of light absorption depends on the solvent. The MTT assay can provide a useful measure of cell viability and proliferation. To quantify cytotoxicity, 10 μl of 10 mg/ml of MTT reagent was added to a well containing cells, and the cells were incubated at 37° C. for 4 hours. The supernatant was aspirated and the purple-colored formazan product was dissolved in 100 μl of DMSO. Absorbance was measured at 590 nm. The average of triplicate wells was taken for each concentration of the drug, and cell viability was calculated by substituting the corresponding mean absorbance values using the following equation:
(§4) A T-test (*=p<0.01; 0 μM=untreated cells) was used to compare toxicity between the two drugs at different concentrations.

HT 1080 cells = system: HT 1080 cells
Procedure: as §3, §4

[5] = system: cisplatin-treated HT 1080 cells; test: Protective potential of quinoxaline pre-treatment on cisplatin-treated HT 1080 cells; assay type: cell-based, human; details: quinoxaline pre-treatment 1 hour, then 100 μM cisplatin 24 hours
Procedure: as §1, §2

HEI-OC1 cells [6] = assay type: cell-based; details: 24 hours
Procedure: As previously done for HT 1080 and N2a cells, the potential cytotoxicity of quinoxaline was measured in HEI-OC1 cells. HEI-OC1 cells were treated with a crescent dosage of quinoxaline (i.e., 200 nM, 500 nM, 1 μM, 10 μM, 50 μM) for 24 hours and submitted to MIT analyses.

SMILES	cell proliferation (numbers of supernumerary cells) ([1]; low doses (e.g., 15 mg))	supernumerary myosin VIIa-positive cells at the IHC region ([1]; quinoxaline pre-treated ears)	myosin VIIa-positive hair cells in middle turn of cochlea ([1]; quinoxaline pre-treatment + cisplatin 20 mg/Kg, versus cisplatin only)	cell proliferation [2]	survival rate ([3]; 200 nM quinoxaline 1 hour pre-treatment + 200 μM cisplatin 24 hours) [%]	survival rate ([3]; 1 μM quinoxaline 1 hour pre-treatment + 200 μM cisplatin 24 hours) [%]	cell survival ([3]; pre-treated with higher than 10 μM quinoxaline + 200 μM cisplatin)	DNA content (cell proliferation) versus untreated cells (HEI-OC1 cells [4])	cell response compared with HT 1080 cells (N2a cells)	cytotoxicity (HT 1080 cells)	effect on cell proliferation (total number of cells) (HT 1080 cells; HT 1080 cells, 0.5 μM)	overall cytotoxicity versus 100 μM cisplatin only [5]	cell death (HEI-OC1 cells [6]; HEI-OC1, dosages higher than 10 μM)	cell proliferation (HEI-OC1 cells [6]; HEI-OC1, lower doses of quinoxaline)	sensitivity of HEI-OC1 cells (HEI-OC1 cells [6]; quinoxaline concentrations higher than 5 μM)
c1ccc2nccnc2c1 [quinoxaline]	increase in the numbers of supernumerary cells	supernumerary myosin VIla-positive cells were observed	myosin VIla-positive hair cells were still observed	promoted their proliferation	25	40	No statistically significant differences in cell survival	statistically significant increase in DNA content	No statistically significant differences	consistently lower than that of cisplatin	modest, but quantifiable, positive effect on cell proliferation	significantly reduced overall cytotoxicity	smaller, but quantifiable cell death	increase in cell proliferation	particularly sensitive
N.N.[Cl][Pt][Cl] [cisplatin, reference compound]	–	–	–	–	–	–	–	–	No statistically significant differences	–	–	–	–	–	–
